Data as given in PMC7347136 (PLoS ONE, 2020).
Read-outs that look alike come from different tables or passages of the source.

Experiments:
KG-1 = test: Viacount viability assay by flow cytometry; assay type: cell-based, human; conditions: 6 h pulse, up to 2 μM, assessed at 48 h
Method: (§1) AML cells were seeded at 5 x 10^5 cells/ml in a 6-well plate and incubated with the test compound or vehicle control (DMSO) for 6, 8 or 10 h. At the end of the incubation period, cells were collected into Falcon tubes, pelleted via centrifugation (5 min at 478 x g), and medium containing compound was aspirated. The cells were resuspended in 4 ml of fresh compound-free medium and returned to the 6-well plates for further incubation. Following compound addition, 100 μl (at 24 h), 75 μl (at 48 h), 50 μl (at 72 h) or 30 μl (at 96 h) of a homogeneous suspension of cells were removed from the culture, made up to 100 μl with medium and mixed with 100 μl Guava Viacount reagent (Millipore, Nottingham, UK) in a 96-well plate. Samples were incubated for 20 min in the dark, mixed and then analyzed by GuavaSoft 2.6 software on the Guava Easycyte 8HT (Millipore). Guava Viacount software was used to gate and calculate the proportion of viable and dead cells in the population.

Kasumi-1 cells = test: Viacount viability assay by flow cytometry; assay type: cell-based, human; conditions: 6 h pulse, 0.5 or 1.0 μM, assessed at 24 h
Method: as §1

HEL [1] = test: Viacount viability assay by flow cytometry; assay type: cell-based, human; conditions: 6 h pulse, up to 2 μM, assessed at 48 h
Method: as §1

MCL1 = system: MCL1; set-up: method as in earlier work; conditions: patient PBMCs; recommended phase 2 dose; cited from earlier work
A549 = test: Resazurin reduction cell viability assay; assay type: cell-based, human
Method: (§2) Solid tumor cell lines were seeded in 100 μl medium into 96-well plates at an appropriate cell number determined by a cell dilution assay (Cal51–2000 cells/well; Colo205, MCF10A and 184A1–3000 cells/well and MDA-MB-468, HCC1954–4000 cells/well). AML suspension cells were seeded in 96-well plates at approximately 3000 cells per well. Cells were incubated overnight at 37°C, 5% CO2. The following day, 100 μl fresh medium containing increasing concentrations of appropriate compound was added and the cells were incubated for up to 72 h at 37°C, 5% CO2. For pulse treatment of solid (adherent) tumor cell lines, medium was aspirated and replaced with fresh drug-free medium. For pulse treatment of suspension lines, plates were centrifuged at 478 xg for 5 min at the end of the incubation period with compound, medium containing compound was carefully aspirated and replaced with fresh compound-free medium. A total of 72 h after the start of treatment, 20 μl of a 10X stock of resazurin sodium salt (Sigma-Aldrich, Dorset, UK) prepared in medium was added to the cells and incubated for up to 3 h. […] was measured on the Wallac Victor plate reader (Cambridge, UK) at 544–595 nm. IC50/70/90 calculations were determined in XLFit.

MDA-MB-231 = test: Resazurin reduction cell viability assay; assay type: cell-based, human
Method: as §2

MV4-11 = test: Resazurin reduction cell viability assay; assay type: cell-based, human
Method: as §2

THP-1 = test: Resazurin reduction cell viability assay; assay type: cell-based, human
Method: as §2

PL21 = test: Resazurin reduction cell viability assay; assay type: cell-based, human
Method: as §2

HEL [2] = test: Resazurin reduction cell viability assay; assay type: cell-based, human
Method: as §2

184A1 = test: Resazurin reduction cell viability assay; assay type: cell-based, human
Method: as §2

MCF10A = test: Resazurin reduction cell viability assay; assay type: cell-based, human
Method: as §2

Kasumi-1 = test: Resazurin reduction cell viability assay; assay type: cell-based; conditions: Homo sapiens
Method: as §2

Nomo-1 = test: Resazurin reduction cell viability assay; assay type: cell-based; conditions: Homo sapiens
Method: as §2

MDA-MB-468 = test: Resazurin reduction cell viability assay; assay type: cell-based; conditions: Homo sapiens
Method: as §2

EOL-1 = test: Resazurin reduction cell viability assay; assay type: cell-based; conditions: Homo sapiens
Method: as §2

HCC1954 = test: Resazurin reduction cell viability assay; assay type: cell-based; conditions: Homo sapiens
Method: as §2

ML-2 = test: Resazurin reduction cell viability assay; assay type: cell-based; conditions: Homo sapiens
Method: as §2

HL60 = test: Resazurin reduction cell viability assay; assay type: cell-based; conditions: Homo sapiens
Method: as §2

Cal51 = test: Resazurin reduction cell viability assay; assay type: cell-based; conditions: Homo sapiens
Method: as §2

[3] = read-out: 6 h pulse IC50 ± SD, 6 h pulse then 66 h release
[4] = 72 h continuous, read-out: 72 h continuous IC50 ± SD

## CC[C@H](Nc1nc(NCc2cnc(C)cc2C)c2ncn(C(C)C)c2n1)[C@@H](C)O [Fadraciclib, 2-pentanol, 3-[[6-[[(4,6-dimethyl-3-pyridinyl)methyl]amino]-9-(1-methylethyl)-9Hpurin-2-yl]amino]-, (2R,3S)]
KG-1
  apoptosis (non-viable cells): approximately 50%
Kasumi-1 cells
  cells induced into apoptosis (dead cells): up to 80%
HEL [1]
  apoptosis (non-viable cells): no appreciable increase in apoptosis
MCL1
  duration of MCL1 suppression: > 24 h
A549
  sensitivity, 6 h pulse versus continuous 72 h: sensitive to fadraciclib only after more prolonged treatment
MDA-MB-231
  sensitivity, 6 h pulse versus continuous 72 h: sensitive to fadraciclib only after more prolonged treatment
MV4-11; Homo sapiens, MV4-11, 72 h, MV4-11, 72 h continuous, read-out: 72 h continuous IC50 ± SD
  IC50: 260 ± 80 nM
MV4-11; Homo sapiens, MV4-11, read-out: 6 h pulse IC50 ± SD, MV4-11, 6 h pulse then 66 h release
  IC50: 500 nM
MV4-11; Homo sapiens, MV4-11, 6 h pulse then 66 h release
  IC90: 920 nM
MV4-11; read-out: 6 h pulse IC50 ± SD, MV4-11, 6 h pulse then 66 h release
  IC50: 510 ± 40 nM
THP-1; Homo sapiens, THP-1, 72 h, THP-1, 72 h continuous, read-out: 72 h continuous IC50 ± SD
  IC50: 570 ± 180 nM
THP-1; Homo sapiens, THP-1, 72 h, THP-1, value the 7 x 7 combination matrix spans, 72 h, read-out: IC50 value of each compound (single agent)
  IC50: 430 nM
THP-1; Homo sapiens, THP-1, read-out: 6 h pulse IC50 ± SD, THP-1, 6 h pulse then 66 h release
  IC50: 1100 nM
THP-1; Homo sapiens, THP-1, 6 h pulse then 66 h release
  IC90: 6800 nM
THP-1; read-out: 6 h pulse IC50 ± SD, THP-1, 6 h pulse then 66 h release
  IC50: 1080 ± 230 nM
PL21; Homo sapiens, PL-21, 72 h, PL21, 72 h continuous, read-out: 72 h continuous IC50 ± SD
  IC50: 340 ± 90 nM
PL21; Homo sapiens, PL-21, PL21, 6 h pulse then 66 h release
  IC90: 9920 nM
PL21; Homo sapiens, PL-21, read-out: 6 h pulse IC50 ± SD, PL21, 6 h pulse then 66 h release
  IC50: 2550 nM
PL21; read-out: 6 h pulse IC50 ± SD, PL21, 6 h pulse then 66 h release
  IC50: 2540 ± 2710 nM
HEL [2]; Homo sapiens, 72 h, 72 h continuous, read-out: 72 h continuous IC50 ± SD
  IC50: 530 ± 200 nM
HEL [2]; Homo sapiens, read-out: 6 h pulse IC50 ± SD, HEL, 6 h pulse then 66 h release
  IC50: 5120 nM
HEL [2]; [3]
  IC50: 5110 ± 880 nM
184A1; Homo sapiens, 184A1, 72 h, 184A1, continuous 72 h, read-out: continuous IC50 ± SD
  IC50: 250 ± 10 nM
184A1; Homo sapiens, 184A1, read-out: 8 h pulse IC50 ± SD, 184A1 (non-malignant), 8 h pulse, read at 72 h
  IC50: 3900 nM
184A1; read-out: 8 h pulse IC50 ± SD, 184A1 (non-malignant), 8 h pulse, read at 72 h
  IC50: 3870 ± 2100 nM
MCF10A; Homo sapiens, MCF-10A, 72 h, MCF10A, continuous 72 h, read-out: continuous IC50 ± SD
  IC50: 400 ± 30 nM
MCF10A; Homo sapiens, MCF-10A, read-out: 8 h pulse IC50 ± SD, MCF10A (non-malignant), 8 h pulse, read at 72 h
  IC50: 3900 nM
MCF10A; read-out: 8 h pulse IC50 ± SD, MCF10A (non-malignant), 8 h pulse, read at 72 h
  IC50: 3890 ± 1040 nM
Kasumi-1; 6 h pulse then 66 h release
  IC90: 570 nM
Kasumi-1; [4]
  IC50: 230 ± 40 nM
Kasumi-1; [3]
  IC50: 320 ± 50 nM
Nomo-1; 6 h pulse then 66 h release
  IC90: 1800 nM
Nomo-1; [4]
  IC50: 290 ± 50 nM
Nomo-1; [3]
  IC50: 660 ± 110 nM
MDA-MB-468; read-out: 8 h pulse IC50 ± SD, MDA-MB-468 (TNBC), 8 h pulse, read at 72 h
  IC50: 990 ± 340 nM
MDA-MB-468; MDA-MB-468, continuous 72 h, read-out: continuous IC50 ± SD
  IC50: 380 ± 170 nM
EOL-1; EOL1, 6 h pulse then 66 h release
  IC90: 560 nM
EOL-1; EOL1, 72 h continuous, read-out: 72 h continuous IC50 ± SD
  IC50: 370 ± 50 nM
EOL-1; EOL1, read-out: 6 h pulse IC50 ± SD, 6 h pulse then 66 h release
  IC50: 350 ± 50 nM
HCC1954; read-out: 8 h pulse IC50 ± SD, HCC1954 (HER2 amplified), 8 h pulse, read at 72 h
  IC50: 480 ± 50 nM
HCC1954; HCC1954, continuous 72 h, read-out: continuous IC50 ± SD
  IC50: 400 ± 30 nM
ML-2; 6 h pulse then 66 h release
  IC90: 590 nM
ML-2; [4]
  IC50: 190 ± 50 nM
ML-2; [3]
  IC50: 330 ± 120 nM
HL60; HL-60, 6 h pulse then 66 h release
  IC90: 1600 nM
HL60; HL-60, 72 h continuous, read-out: 72 h continuous IC50 ± SD
  IC50: 440 ± 70 nM
HL60; HL-60, read-out: 6 h pulse IC50 ± SD, 6 h pulse then 66 h release
  IC50: 790 ± 140 nM
Cal51; CAL-51, read-out: 8 h pulse IC50 ± SD, Cal51 (TNBC), 8 h pulse, read at 72 h
  IC50: 680 ± 200 nM
Cal51; CAL-51, Cal51, continuous 72 h, read-out: continuous IC50 ± SD
  IC50: 230 ± 40 nM
